Experiment [1] relates to Staphylococcus aureus. Nature of the experiment: Antimicrobial activity against […] Staphylococcus aureus USA300 measured after 24 hrs by CLSI protocol based microdilution method. It counts as functional. Background: Dilution methods test growth across graded concentrations, often in twofold steps.
The subject of experiment [2] is Staphylococcus aureus. Nature of the experiment: Antimicrobial activity against […] Staphylococcus aureus NRS271 measured after 24 hrs by CLSI protocol based microdilution method. It counts as functional.
In experiment [3] the test system is Enterococcus faecium. Nature of the experiment: Antimicrobial activity against Enterococcus faecium ATCC19434 measured after 24 hrs by CLSI protocol based microdilution method. Type of experiment: functional.
Experiment [4] concerns Enterococcus faecalis. Nature of the experiment: Antimicrobial activity against Enterococcus faecalis ATCC29212 measured after 24 hrs by CLSI protocol based microdilution method. Type of experiment: functional.
Experiment [5] relates to Candida albicans. Nature of the experiment: Antimicrobial activity against Candida albicans SC5314 measured after 48 hrs by CLSI protocol based microdilution method. It counts as functional.
Experiment [6] concerns the target T1, Enoyl-[acyl-carrier-protein] reductase [NADPH] FabI (Staphylococcus aureus) (UniProt Q6GI75).
T1 sequence (whole entry): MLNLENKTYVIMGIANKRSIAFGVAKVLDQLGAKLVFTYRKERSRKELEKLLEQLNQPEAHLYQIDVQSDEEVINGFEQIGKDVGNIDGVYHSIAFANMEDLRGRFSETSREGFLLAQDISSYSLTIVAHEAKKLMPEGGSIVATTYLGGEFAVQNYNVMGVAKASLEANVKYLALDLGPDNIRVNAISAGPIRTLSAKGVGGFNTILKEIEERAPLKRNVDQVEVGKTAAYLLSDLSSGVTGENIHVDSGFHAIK
Nature of the experiment: Inhibition of N-terminal his 6 tagged Staphylococcus aureus Fabi (1 to […] residues) expressed in Escherichia coli BL21 at 10 uM incubated for 30 mins in presence of NADPH by fluorescence based microplate reader analysis relative to control.

In experiment [7] the test system is Staphylococcus aureus. Nature of the experiment: Antimicrobial activity against methicillin-susceptible Staphylococcus aureus ATCC25923 measured after 24 hrs by CLSI protocol based microdilution method. Type of experiment: functional.
The subject of experiment [8] is Staphylococcus aureus. Nature of the experiment: Antimicrobial activity against methicillin-susceptible Staphylococcus aureus ATCC29213 measured after 24 hrs by CLSI protocol based microdilution method. Type of experiment: functional.
For experiment [9], the system named is Staphylococcus aureus. Nature of the experiment: Antimicrobial activity against […] Staphylococcus aureus ATCC43300 measured after 24 hrs by CLSI protocol based microdilution method. Type of experiment: functional.
Experiment [10] deals with Pseudomonas aeruginosa. Nature of the experiment: Antimicrobial activity against Pseudomonas aeruginosa PAO1 measured after 24 hrs by CLSI protocol based microdilution method. It counts as functional.
Experiment [11] addresses T1, Enoyl-[acyl-carrier-protein] reductase [NADPH] FabI (Staphylococcus aureus). Nature of the experiment: Inhibition of N-terminal his 6 tagged Staphylococcus aureus Fabi (1 to […] residues) expressed in Escherichia coli BL21 at 1 uM incubated for 30 mins in presence of NADPH by fluorescence based microplate reader analysis relative to control.
Experiment [12] relates to Acinetobacter baumannii. Nature of the experiment: Antimicrobial activity against Acinetobacter baumannii ATCC19606 measured after 24 hrs by CLSI protocol based microdilution method. It counts as functional.
Experiment [13] has as its system Staphylococcus aureus. Nature of the experiment: Antimicrobial activity against […] Staphylococcus aureus ATCC33591 measured after 24 hrs by CLSI protocol based microdilution method. It counts as functional.
The subject of experiment [14] is Escherichia coli. Nature of the experiment: Antimicrobial activity against Escherichia coli ATCC25922 measured after 24 hrs by CLSI protocol based microdilution method. Type of experiment: functional.

SMILES strings stand for the structures. Bounds are passed on as bounds.

What is called MIC is the lowest concentration that inhibits growth of the organism. In general, inhibition refers to the change of the read-out against control, counted positive when it falls. On to `Cn1c(CCC(=O)Nc2ccccc2)nc2ccccc21`, for which the minimum inhibitory concentration (MIC) in experiment [1], in [2], in experiment [3], in [4], in experiment [5] and in experiment [7] was over 32 µg/mL throughout. Also, the MIC in experiment [8], in experiment [9], in [10], in experiment [12], in [13] and in experiment [14] was over 32 µg/mL throughout. The inhibition in experiment [6] was 7.8%; in experiment [11], 7.7%.
Take `Cc1cccc(C(=O)NCCNC(=O)c2nc3ccccc3n2C)c1C`: the MIC in [1], in experiment [2], in [3], in experiment [4], in experiment [5] and in experiment [7] was over 32 µg/mL throughout. For the same molecule, the MIC in [8], in experiment [9], in experiment [10], in [12], in experiment [13] and in [14] was over 32 µg/mL throughout. Also, the inhibition in [6] came to 3.7%; in experiment [11], 1.7%.
Take `Cc1cccc(NC(=O)CCc2nc3ccccc3n2C)c1C`: the MIC in experiment [1], in [2], in experiment [3], in [4], in experiment [5] and in experiment [7] was over 32 µg/mL each time. In addition, the MIC in experiment [8], in [9], in experiment [10], in experiment [12], in experiment [13] and in [14] was over 32 µg/mL each time. Further, the inhibition in [6] is 10%; in experiment [11] it was 4.5%.
Regarding `Cn1c(CCC(=O)NCCNC(=O)Cc2ccccc2)nc2ccccc21`, the MIC in experiment [1], in experiment [2], in [3], in experiment [4], in experiment [5] and in experiment [7] was over 32 µg/mL in each case. For the same molecule, the MIC in experiment [8], in experiment [9], in [10], in experiment [12], in experiment [13] and in [14] was over 32 µg/mL throughout. Also, the inhibition in [6] is 21.4%; in experiment [11], 3.6%.
With `Cn1c(CCC(=O)NCc2ccccc2)nc2ccccc21`, the MIC in experiment [1], in experiment [2], in experiment [3], in experiment [4], in experiment [5] and in [7] was over 32 µg/mL throughout. Besides, the minimum inhibitory concentration (MIC) in experiment [8], in experiment [9], in experiment [10], in [12], in [13] and in [14] was over 32 µg/mL throughout. The values for the inhibition in [6] and in [11] were 6.1% and 7.9%, respectively.
In the case of `Cn1c(C2CC(=O)N(c3ccc(Br)c(Br)c3)C2)nc2ccccc21` (stereo unspecified), the minimal inhibitory concentration (MIC) in experiment [1], in experiment [2], in experiment [3], in experiment [4], in experiment [5] and in [7] was over 32 µg/mL in each case. For the same molecule, the MIC in experiment [8], in experiment [9], in [10], in experiment [12], in [13] and in experiment [14] was over 32 µg/mL in each case. In addition, the results for the inhibition in experiment [6] and in [11] were 45.4% and 4.8%, respectively.
On to `Cn1c(C2CC(=O)N(c3ccccc3-c3ccccc3)C2)nc2ccccc21` (stereo unspecified), for which the MIC in experiment [1], in experiment [2], in experiment [3], in [4], in [5] and in experiment [7] was over 32 µg/mL throughout. Besides, the MIC in experiment [8], in experiment [9], in experiment [10], in experiment [12], in experiment [13] and in [14] was over 32 µg/mL each time. Also, the inhibition in experiment [6] worked out at 5.8%; in experiment [11], 2.3%.
On to `Cn1c(C2CC(=O)N(c3ccc(N4CCOCC4)cc3)C2)nc2ccccc21` (stereo unspecified), for which the minimal inhibitory concentration (MIC) in experiment [1], in experiment [2], in [3], in [4], in experiment [5] and in experiment [7] was over 32 µg/mL each time. Further, the MIC in experiment [8], in experiment [9], in experiment [10], in experiment [12], in experiment [13] and in experiment [14] was over 32 µg/mL in each case. The values for the inhibition in experiment [6] and in [11] were 7.7% and 8.2%, respectively.
In the case of `Cn1c(C2CC(=O)N(C3CCCCC3)C2)nc2ccccc21` (stereo unspecified), the MIC in experiment [1], in [2], in experiment [3], in [4], in experiment [5] and in experiment [7] was over 32 µg/mL throughout. For the same molecule, the MIC in [8], in [9], in experiment [10], in experiment [12], in experiment [13] and in [14] was over 32 µg/mL in each case. The results for the inhibition in experiment [6] and in experiment [11] were 43.7% and 3.2%, respectively.
As to `Cn1c(C2CC(=O)N(c3ccccc3)C2)nc2ccccc21` (stereo unspecified), the MIC in experiment [1], in [2], in experiment [3], in experiment [4], in experiment [5] and in experiment [7] was over 32 µg/mL in each case. The minimum inhibitory concentration (MIC) in experiment [8], in experiment [9], in experiment [10], in [12], in experiment [13] and in experiment [14] was over 32 µg/mL in each case. Further, the inhibition in [6] was found to be 56.2%; in experiment [11], 8.9%.
On to `Cc1cccc(C(=O)NCCNC(=O)CCc2nc3ccccc3n2C)c1C`, for which the MIC in [1], in experiment [2], in experiment [3], in [4], in experiment [5] and in experiment [7] was over 32 µg/mL in each case. For the same molecule, the MIC in [8], in [9], in [10], in [12], in [13] and in experiment [14] was over 32 µg/mL throughout. The inhibition in [6] was found to be 25.6%; in experiment [11], 5.2%.
Regarding `Cc1cccc(N2CCC(c3nc4ccccc4n3C)CC2)c1C`, the minimum inhibitory concentration (MIC) in experiment [1], in experiment [2], in [3], in [4], in experiment [5] and in experiment [7] was over 32 µg/mL each time. Further, the MIC in [8], in experiment [9], in experiment [10], in experiment [12], in experiment [13] and in experiment [14] was over 32 µg/mL throughout. The inhibition is 2% in experiment [6] and 2.8% in [11].
For the molecule `Cc1cccc(NC(=O)c2nc3ccccc3n2C)c1C`, the MIC in [1], in [2], in experiment [3], in [4], in [5] and in experiment [7] was over 32 µg/mL throughout. Further, the MIC in experiment [8], in experiment [9], in experiment [10], in [12], in experiment [13] and in [14] was over 32 µg/mL each time. Further, the results for the inhibition in [6] and in [11] were 8.9% and 5.2%, respectively.
Consider `COc1cccc(N2CC(c3nc4ccccc4n3C)CC2=O)c1OC` (stereo unspecified), for which the minimum inhibitory concentration (MIC) in experiment [1], in experiment [2], in experiment [3], in experiment [4], in experiment [5] and in experiment [7] was over 32 µg/mL each time. Moreover, the MIC in experiment [8], in [9], in [10], in experiment [12], in experiment [13] and in experiment [14] was over 32 µg/mL throughout. Further, the figures for the inhibition in [6] and in experiment [11] were 45.2% and 3.8%, respectively.

The record behind these values is ChEMBL document CHEMBL5500393, “Discovery and Optimization of Novel SaFabI Inhibitors as Specific Therapeutic Agents for MRSA Infection” (J Med Chem, 2024).
